# Tested on: single cells from the ventral hippocampus (vHipp)
# Experiment: Single-cell RNA sequencing (scRNA-seq) of the ventral hippocampus after ketamine treatment; differential expression per cell type; for Mean-Ket: unit not given here
# [1] = Astrocytes, ketamine 10 mg/kg i.p.
# [2] = Astrocytes, ketamine 10 mg/kg i.p. vs saline
# [3] = Endothelial, ketamine 10 mg/kg i.p.
# [4] = Endothelial, ketamine 10 mg/kg i.p. vs saline
compound,measurement,setting,value
"CNC1(c2ccccc2Cl)CCCCC1=O (racemic) [ketamine, (R,S)-ketamine]",Change,"Aarsd1, Glut Neurons",Down
same,Mean-Ket,"Aarsd1, Glut Neurons",1.682
same,logFC,"Aarsd1, Glut Neurons",−0.119
same,Change,"Acad9, Glut Neurons",Up
same,Mean-Ket,"Acad9, Glut Neurons",1.372
same,logFC,"Acad9, Glut Neurons",0.210
same,Change,"Aire, Glut Neurons",Down
same,Mean-Ket,"Aire, Glut Neurons",2.157
same,logFC,"Aire, Glut Neurons",−0.116
same,Change,"Akap5, Astrocytes",Down
same,Mean-Ket,"Akap5, Astrocytes",4.005
same,logFC,"Akap5, Astrocytes",−0.219
same,Aire Mean-Ket,[1],2.361
same,Aktip Mean-Ket,[1],1.656
same,Atg2a Mean-Ket,[1],1.418
same,Calm1 Mean-Ket,[1],2.021
same,Calm2 Mean-Ket,[1],1.730
same,Capza2 Mean-Ket,[1],3.001
same,Cars2 Mean-Ket,[1],2.703
same,Cep89 Mean-Ket,[1],2.822
same,Cox7a2 Mean-Ket,[1],1.052
same,Elp6 Mean-Ket,[1],1.701
same,Fam193a Mean-Ket,[1],2.684
same,Gje1 Mean-Ket,[1],0.961
same,Gmeb1 Mean-Ket,[1],2.962
same,Hadhb Mean-Ket,[1],1.956
same,Haus8 Mean-Ket,[1],1.269
same,Lztr1 Mean-Ket,[1],1.556
same,Mettl3 Mean-Ket,[1],2.842
same,Mrp19 Mean-Ket,[1],2.904
same,Mterf3 Mean-Ket,[1],1.289
same,Nop58 Mean-Ket,[1],2.828
same,P3h3 Mean-Ket,[1],2.495
same,Parp1 Mean-Ket,[1],2.675
same,Polr2c Mean-Ket,[1],2.613
same,Ppan Mean-Ket,[1],2.916
same,Rfc2 Mean-Ket,[1],0.929
same,Rpap1 Mean-Ket,[1],1.265
same,Sec23ip Mean-Ket,[1],2.886
same,Slc23a1 Mean-Ket,[1],2.421
same,Snf8 Mean-Ket,[1],2.945
same,Sumf2 Mean-Ket,[1],1.532
same,Tecr Mean-Ket,[1],1.562
same,Tuba1b Mean-Ket,[1],1.065
same,Tubb2a Mean-Ket,[1],0.960
same,Uba2 Mean-Ket,[1],1.413
same,Vps8 Mean-Ket,[1],2.087
same,Zcchc4 Mean-Ket,[1],0.999
same,Aire Change,[2],Down
same,Aire logFC,[2],−0.106
same,Aktip Change,[2],Down
same,Aktip logFC,[2],−0.119
same,Atg2a Change,[2],Down
same,Atg2a logFC,[2],−0.105
same,Calm1 Change,[2],Down
same,Calm1 logFC,[2],−0.155
same,Calm2 Change,[2],Down
same,Calm2 logFC,[2],−0.130
same,Capza2 Change,[2],Down
same,Capza2 logFC,[2],−0.082
same,Cars2 Change,[2],Down
same,Cars2 logFC,[2],−0.090
same,Cep89 Change,[2],Down
same,Cep89 logFC,[2],−0.075
same,Cox7a2 Change,[2],Down
same,Cox7a2 logFC,[2],−0.144
same,Elp6 Change,[2],Down
same,Elp6 logFC,[2],−0.124
same,Fam193a Change,[2],Down
same,Fam193a logFC,[2],−0.088
same,Gje1 Change,[2],Down
same,Gje1 logFC,[2],−0.108
same,Gmeb1 Change,[2],Down
same,Gmeb1 logFC,[2],−0.074
same,Hadhb Change,[2],Down
same,Hadhb logFC,[2],−0.103
same,Haus8 Change,[2],Down
same,Haus8 logFC,[2],−0.116
same,Lztr1 Change,[2],Down
same,Lztr1 logFC,[2],−0.130
same,Mettl3 Change,[2],Down
same,Mettl3 logFC,[2],−0.077
same,Mrp19 Change,[2],Down
same,Mrp19 logFC,[2],−0.074
same,Mterf3 Change,[2],Down
same,Mterf3 logFC,[2],−0.125
same,Nop58 Change,[2],Down
same,Nop58 logFC,[2],−0.094
same,P3h3 Change,[2],Down
same,P3h3 logFC,[2],−0.092
same,Parp1 Change,[2],Down
same,Parp1 logFC,[2],−0.079
same,Polr2c Change,[2],Down
same,Polr2c logFC,[2],−0.091
same,Ppan Change,[2],Down
same,Ppan logFC,[2],−0.074
same,Rfc2 Change,[2],Down
same,Rfc2 logFC,[2],−0.121
same,Rpap1 Change,[2],Down
same,Rpap1 logFC,[2],−0.125
same,Sec23ip Change,[2],Down
same,Sec23ip logFC,[2],−0.086
same,Slc23a1 Change,[2],Down
same,Slc23a1 logFC,[2],−0.099
same,Snf8 Change,[2],Down
same,Snf8 logFC,[2],−0.074
same,Sumf2 Change,[2],Down
same,Sumf2 logFC,[2],−0.127
same,Tecr Change,[2],Down
same,Tecr logFC,[2],−0.242
same,Tuba1b Change,[2],Down
same,Tuba1b logFC,[2],−0.115
same,Tubb2a Change,[2],Down
same,Tubb2a logFC,[2],−0.113
same,Uba2 Change,[2],Down
same,Uba2 logFC,[2],−0.113
same,Vps8 Change,[2],Down
same,Vps8 logFC,[2],−0.120
same,Zcchc4 Change,[2],Down
same,Zcchc4 logFC,[2],−0.112
same,Change,"Atp5a1, Glut Neurons",Down
same,Mean-Ket,"Atp5a1, Glut Neurons",0.832
same,logFC,"Atp5a1, Glut Neurons",−0.162
same,Change,"Atp5j2, Glut Neurons",Down
same,Mean-Ket,"Atp5j2, Glut Neurons",0.851
same,logFC,"Atp5j2, Glut Neurons",−0.169
same,Change,"Atp5j, Glut Neurons",Down
same,Mean-Ket,"Atp5j, Glut Neurons",1.199
same,logFC,"Atp5j, Glut Neurons",−0.230
same,Change,"Atp6v0e2, Astrocytes",Down
same,Mean-Ket,"Atp6v0e2, Astrocytes",1.529
same,logFC,"Atp6v0e2, Astrocytes",−0.138
same,Change,"Atp5h, Glut Neurons",Down
same,Mean-Ket,"Atp5h, Glut Neurons",1.341
same,logFC,"Atp5h, Glut Neurons",−0.231
same,Change,"Atxn2, Glut Neurons",Down
same,Mean-Ket,"Atxn2, Glut Neurons",1.752
same,logFC,"Atxn2, Glut Neurons",−0.131
same,Change,"Cars2, Glut Neurons",Down
same,Mean-Ket,"Cars2, Glut Neurons",2.514
same,logFC,"Cars2, Glut Neurons",−0.095
same,Change,"Casc4, Glut Neurons",Down
same,Mean-Ket,"Casc4, Glut Neurons",3.269
same,logFC,"Casc4, Glut Neurons",−0.109
same,Change,"Ccdc62, Glut Neurons",Down
same,Mean-Ket,"Ccdc62, Glut Neurons",1.370
same,logFC,"Ccdc62, Glut Neurons",−0.131
same,Change,"Cep89, Glut Neurons",Down
same,Mean-Ket,"Cep89, Glut Neurons",2.584
same,logFC,"Cep89, Glut Neurons",−0.104
same,Change,"Chn1, Glut Neurons",Down
same,Mean-Ket,"Chn1, Glut Neurons",1.219
same,logFC,"Chn1, Glut Neurons",−0.192
same,Change,"Chpt1, Glut Neurons",Down
same,Mean-Ket,"Chpt1, Glut Neurons",2.768
same,logFC,"Chpt1, Glut Neurons",−0.092
same,Change,"Cox6b1, Glut Neurons",Down
same,Mean-Ket,"Cox6b1, Glut Neurons",1.063
same,logFC,"Cox6b1, Glut Neurons",−0.161
same,Change,"Cpe, Glut Neurons",Down
same,Mean-Ket,"Cpe, Glut Neurons",1.060
same,logFC,"Cpe, Glut Neurons",−0.123
same,Change,"Cxcr2, Glut Neurons",Down
same,Mean-Ket,"Cxcr2, Glut Neurons",2.721
same,logFC,"Cxcr2, Glut Neurons",−0.098
same,Change,"D3Ertd254e, Glut Neurons",Down
same,Mean-Ket,"D3Ertd254e, Glut Neurons",1.540
same,logFC,"D3Ertd254e, Glut Neurons",−0.179
same,Change,"D6Wsu163e, Glut Neurons",Down
same,Mean-Ket,"D6Wsu163e, Glut Neurons",2.314
same,logFC,"D6Wsu163e, Glut Neurons",−0.101
same,Change,"Dars, Glut Neurons",Down
same,Mean-Ket,"Dars, Glut Neurons",1.380
same,logFC,"Dars, Glut Neurons",−0.115
same,Change,"Dhx30, Glut Neurons",Down
same,Mean-Ket,"Dhx30, Glut Neurons",1.310
same,logFC,"Dhx30, Glut Neurons",−0.133
same,Change,"Dpp10, Glut Neurons",Up
same,Mean-Ket,"Dpp10, Glut Neurons",1.344
same,logFC,"Dpp10, Glut Neurons",0.216
same,Change,"Eef1akmt3, Astrocytes",Up
same,Mean-Ket,"Eef1akmt3, Astrocytes",1.918
same,logFC,"Eef1akmt3, Astrocytes",0.336
same,Change,"Eif4a2, Glut Neurons",Down
same,Mean-Ket,"Eif4a2, Glut Neurons",1.524
same,logFC,"Eif4a2, Glut Neurons",−0.234
same,Change,"Enah, Glut Neurons",Down
same,Mean-Ket,"Enah, Glut Neurons",2.212
same,logFC,"Enah, Glut Neurons",−0.108
same,Akap5 Mean-Ket,[3],3.573
same,Eef1akmt3 Mean-Ket,[3],1.735
same,Ilf2 Mean-Ket,[3],1.206
same,Lrrc17 Mean-Ket,[3],2.859
same,Saa3 Mean-Ket,[3],1.407
same,Slco1a4 Mean-Ket,[3],1.231
same,Vps8 Mean-Ket,[3],1.667
same,Akap5 Change,[4],Down
same,Akap5 logFC,[4],−0.447
same,Eef1akmt3 Change,[4],Up
same,Eef1akmt3 logFC,[4],0.511
same,Ilf2 Change,[4],Up
same,Ilf2 logFC,[4],0.361
same,Lrrc17 Change,[4],Down
same,Lrrc17 logFC,[4],−0.407
same,Saa3 Change,[4],Up
same,Saa3 logFC,[4],0.366
same,Slco1a4 Change,[4],Up
same,Slco1a4 logFC,[4],0.415
same,Vps8 Change,[4],Down
same,Vps8 logFC,[4],−0.398
same,Change,"Exosc5, Glut Neurons",Down
same,Mean-Ket,"Exosc5, Glut Neurons",1.196
same,logFC,"Exosc5, Glut Neurons",−0.109
same,Change,"Fam193a, Glut Neurons",Down
same,Mean-Ket,"Fam193a, Glut Neurons",2.472
same,logFC,"Fam193a, Glut Neurons",−0.101
same,Change,"Fgd4, Glut Neurons",Up
same,Mean-Ket,"Fgd4, Glut Neurons",2.397
same,logFC,"Fgd4, Glut Neurons",0.144
same,Change,"Foxr1, Glut Neurons",Down
same,Mean-Ket,"Foxr1, Glut Neurons",2.380
same,logFC,"Foxr1, Glut Neurons",−0.113
same,Change,"Fubp1, Glut Neurons",Down
same,Mean-Ket,"Fubp1, Glut Neurons",2.828
same,logFC,"Fubp1, Glut Neurons",−0.093
same,Change,"Furin, Glut Neurons",Down
same,Mean-Ket,"Furin, Glut Neurons",1.335
same,logFC,"Furin, Glut Neurons",−0.132
same,Change,"Gapdh-ps15, Astrocytes",Down
same,Mean-Ket,"Gapdh-ps15, Astrocytes",1.333
same,logFC,"Gapdh-ps15, Astrocytes",−0.157
same,Change,"Gclm, Glut Neurons",Down
same,Mean-Ket,"Gclm, Glut Neurons",0.984
same,logFC,"Gclm, Glut Neurons",−0.113
same,Change,"Gmeb1, Glut Neurons",Down
same,Mean-Ket,"Gmeb1, Glut Neurons",2.782
same,logFC,"Gmeb1, Glut Neurons",−0.087
same,Change,"Golga3, Astrocytes",Down
same,Mean-Ket,"Golga3, Astrocytes",1.515
same,logFC,"Golga3, Astrocytes",−0.136
same,Change,"H2-T23, Glut Neurons",Down
same,Mean-Ket,"H2-T23, Glut Neurons",1.757
same,logFC,"H2-T23, Glut Neurons",−0.173
same,Change,"Hook3, Glut Neurons",Down
same,Mean-Ket,"Hook3, Glut Neurons",2.556
same,logFC,"Hook3, Glut Neurons",−0.089
same,Change,"Hsd3b2, Glut Neurons",Up
same,Mean-Ket,"Hsd3b2, Glut Neurons",1.162
same,logFC,"Hsd3b2, Glut Neurons",0.193
same,Change,"Il17ra, Glut Neurons",Up
same,Mean-Ket,"Il17ra, Glut Neurons",1.490
same,logFC,"Il17ra, Glut Neurons",0.252
same,Change,"Ilf2, Astrocytes",Up
same,Mean-Ket,"Ilf2, Astrocytes",1.350
same,logFC,"Ilf2, Astrocytes",0.295
same,Change,"Ipo7, Glut Neurons",Down
same,Mean-Ket,"Ipo7, Glut Neurons",1.687
same,logFC,"Ipo7, Glut Neurons",−0.119
same,Change,"Kcnj16, Glut Neurons",Up
same,Mean-Ket,"Kcnj16, Glut Neurons",1.052
same,logFC,"Kcnj16, Glut Neurons",0.227
same,Change,"Kif3a, Glut Neurons",Down
same,Mean-Ket,"Kif3a, Glut Neurons",1.198
same,logFC,"Kif3a, Glut Neurons",−0.141
same,Change,"Loxl2, Glut Neurons",Down
same,Mean-Ket,"Loxl2, Glut Neurons",2.605
same,logFC,"Loxl2, Glut Neurons",−0.098
same,Change,"Lrrc17, Astrocytes",Down
same,Mean-Ket,"Lrrc17, Astrocytes",3.291
same,logFC,"Lrrc17, Astrocytes",−0.192
same,Change,"Lsm8, Glut Neurons",Down
